Six compounds from publication PMC4909242, “Cyclization strategies of meditopes: affinity and diffraction studies of meditope–Fab complexes” (Acta Crystallographica. Section F, Structural Biology …, 2016) can be followed below.

The test system of the assay is cetuximab IgG. Description: Surface plasmon resonance binding kinetics of meditope variants to cetuximab. To be noted: SPR; for k a / k d: Biacore T100, cetuximab IgG amine-coupled to CM5 chip (5000 RU), HBS-EP+ pH 7.4, flow 30 µl min^−1; for k a: error <38% for values of variants marked ‡; for k d: off-rate independent of peptide concentration.

Compound `CC(C)C[C@@H]1NC(=O)[C@H](CCCNC(=N)N)NC(=O)[C@H](CCCNC(=N)N)NC(=O)[C@H]([C@@H](C)O)NC(=O)[C@H](CO)NC(=O)[C@H](CC(C)C)NC(=O)[C@H](CC(=O)O)NC(=O)[C@H](Cc2ccccc2)NC(=O)[C@H](CCC(N)=O)NC(=O)CCNC(=O)CCNC(=O)[C@H](CCCCN)NC1=O` registered a k a of 5.8 M^−1 s^−1 × 10^4 and a k d of 0.091 s⁻¹.
The corresponding values for `CC(C)C[C@@H]1NC(=O)[C@H](CCCNC(=N)N)NC(=O)[C@H](CCCNC(=N)N)NC(=O)[C@H]([C@@H](C)O)NC(=O)[C@H](CO)NC(=O)[C@H](CC(C)C)NC(=O)[C@H](CC(=O)O)NC(=O)[C@H](Cc2ccccc2)NC(=O)[C@H](CCC(N)=O)NC(=O)[C@@H](N)CSSC[C@@H](C(N)=O)NC(=O)[C@H](CCCCN)NC1=O` are 12 M^−1 s^−1 × 10^4 and 0.018 s⁻¹.
The corresponding values for `CC(C)C[C@@H]1NC(=O)[C@H](CCCNC(=N)N)NC(=O)[C@H](CCCNC(=N)N)NC(=O)[C@H]([C@@H](C)O)NC(=O)[C@H](CO)NC(=O)[C@H](CC(C)C)NC(=O)[C@H](CC(=O)O)NC(=O)[C@H](Cc2ccccc2)NC(=O)[C@H](CCC(N)=O)NC(=O)CCCCCCNC(=O)[C@H](CCCCN)NC1=O` are 3.8 M^−1 s^−1 × 10^4 and 0.064 s⁻¹.
`CC(=O)N[C@H]1CSSC[C@@H](C(N)=O)NC(=O)[C@H](CCCCN)NC(=O)[C@H](CC(C)C)NC(=O)[C@H](CCCNC(=N)N)NC(=O)[C@H](CCCNC(=N)N)NC(=O)[C@H]([C@@H](C)O)NC(=O)[C@H](CO)NC(=O)[C@H](CC(C)C)NC(=O)[C@H](CC(=O)O)NC(=O)[C@H](Cc2ccccc2)NC(=O)[C@H](CCC(N)=O)NC1=O`: the k a came to 15 M^−1 s^−1 × 10^4 and the k d was 0.011 s⁻¹. Further, the “increase in affinity compared with the original meditope” value (ratio of K d to the original disulfide meditope) is on record as about 2.3 fold.
In the case of `CC(=O)N[C@H]1CSSC[C@@H](C(=O)NCC(=O)NCC(=O)N[C@@H](CO)C(=O)N[C@@H](CCCCN)C(=O)O)NC(=O)[C@H](CCCNC(=N)N)NC(=O)[C@H](CC(C)C)NC(=O)[C@H](CCCNC(=N)N)NC(=O)[C@H](CCCNC(=N)N)NC(=O)[C@H]([C@@H](C)O)NC(=O)[C@H](CO)NC(=O)[C@H](CC(C)C)NC(=O)[C@H](CC(=O)O)NC(=O)[C@H](Cc2ccccc2)NC(=O)[C@H](CCC(N)=O)NC1=O`, the k d amounted to 0.010 s⁻¹.
For `CC(C)C[C@@H]1NC(=O)[C@H](CCCNC(=N)N)NC(=O)[C@H](CCCNC(=N)N)NC(=O)[C@H]([C@@H](C)O)NC(=O)[C@H](CO)NC(=O)[C@H](CC(C)C)NC(=O)[C@H](CC(=O)O)NC(=O)[C@H](Cc2ccccc2)NC(=O)[C@H](CCC(N)=O)NC(=O)CCSSC[C@@H](C(=O)O)NC(=O)[C@H](CCCCN)NC1=O`, the k a turned out to be 2.1 M^−1 s^−1 × 10^4 and the k d is 0.012 s⁻¹. Where the note is “ratio of k a”, the “decrease in the on-rate compared with the long meditope” value was about 4.4 fold.
